Results published in patent US20090233895A1, “METHOD OF TREATMENT OF BACTERIAL INFECTIONS” (Ethypharm, priority 2006, published 2009).

Legend:
[1] = test system: E. coli GR2; assay: modified Hollow T-Tube in vitro model simulating antibacterial treatment with oral cefaclor in humans over 24 hours; format: cell-based, Escherichia coli; settings: for Observed Δt > MIC / Δt > MIC: percentage of the dosage interval
Procedure: The bacteria stem from one strain of Escherichia coli, species that is considered to be non-constantly sensitive. The strain was obtained from M.-H. Nicolas (Hôpital Ambroise Paré, Paris, France) under the code E. coli GR2 with MIC of […]. The usual breakpoints with cefaclor for E. coli are ≦2 mg/l for sensitive strains and >8 mg/l for resistant strains, according to CA-SFM (Comité de l'Antibiogramme de la Société Française de Microbiologie).
The culture media is a Müller-Hinton Broth (MHB) obtained from Pasteur diagnostic (reference 69444). The starting inoculum of E. coli in the culture media is 10^7±5% CFU/ml. The E. coli concentration is measured by nephelometry (Densimat, ref. 99535 ver. A, Biomérieux, France) and standard dilution method.
(§1) The counting of E. coli present in the culture medium was measured in vitro in a model simulating the antibacterial treatment with oral beta-lactamine in humans over 24 hours.
(§2) The model simulating the antibacterial treatment used in the examples is a modified “Hollow T-Tube”-model, originally described by Cappellety et al. (Pharmacodynamics of ceftazidime administered as continuous infusion or intermittent bolus alone or in combination with single daily-dose amikacine against Pseudomonas aeruginosa in an in vitro infection model, A.A.C., 1995, 33: 1797-1801) and modified by the inventors (Louchahi et al. A procedure to mimic human impaired kinetic profiles of antibiotics with the hollow glass T-tube in vitro pharmacodynamic model, Abstract no 2116, p. 234, 39th ICAAC, Sep. 26-29, 1999, San Francisco).
In all experiments the period during which, after the addition of cefaclor, the concentration of cefaclor was above the MIC was measured (Δt>MIC). The result is expressed as percentage of the dosage interval.
The variation of the bacterial count was regularly registered during 24 hours. The result is expressed as ΔUFC/ml. For every experiment, the negative sign is highlighting the decreasing count with time since it corresponds to the difference between the initial inoculum at T0 and final bacterial count at T 24 h.

[2] = cefaclor concentration profile (t1/2, cmax) observed in the modified Hollow T-Tube in vitro model
Procedure: as §1, §2
Three different elimination half-lives were simulated: • 1. t1/2=45-50 min, which corresponds to a conventional immediate release form of cefaclor, • 2. t1/2=55-60 min, which corresponds to a conventional sustained release form of cefaclor, • 3. t1/2=90-100 min, which corresponds to an extended release form of cefaclor according to the present invention.

[3] = E1.1: expected t1/2 45-50 min, 500 mg, interval 8 h
[4] = E1.2: expected t1/2 55-60 min, 750 mg, interval 12 h
[5] = E1.3: expected t1/2 90-100 min, 500 mg, interval 8 h
[6] = E1.4: expected t1/2 90-100 min, 750 mg, interval 12 h
[7] = E1.5: expected t1/2 90-100 min, 750 mg, interval 8 h
[8] = E2.1: simulated poor absorber, 500 mg, interval 8 h
[9] = E2.2: simulated standard absorber, 500 mg, interval 8 h
[10] = E2.3: simulated good absorber, 500 mg, interval 8 h

N[C@@H](C(=O)N[C@@H]1C(=O)N2C(C(=O)O)=C(Cl)CS[C@H]12)c1ccccc1 [cefaclor, cefaclor monohydrate]
Δ UFC/ml by 24 h [1, 3]: −1.5 log
Observed Δt > MIC [1, 3]: 50%
Δ UFC/ml by 24 h [1, 4]: −1.5 log
Observed Δt > MIC [1, 4]: 30-35%
Δ UFC/ml by 24 h [1, 5]: −4 log
Observed Δt > MIC [1, 5]: 75%
Δ UFC/ml by 24 h [1, 6]: −1.5 log
Observed Δt > MIC [1, 6]: 58%
Δ UFC/ml by 24 h [1, 7]: >−5 log
Observed Δt > MIC [1, 7]: 87%
Δ UFC/ml by 24 h [1, 8]: −3 log
Δt > MIC [1, 8]: 50%
Δ UFC/ml by 24 h [1, 9]: −4 log
Δt > MIC [1, 9]: 75%
Δ UFC/ml by 24 h [1, 10]: −5 log
Δt > MIC [1, 10]: 87%
Observed t1/2 ([2]; E1.1: expected t1/2 45-50 min, 500 mg cefaclor, dosage interval 8 h): 0.767 h
Observed t1/2 ([2]; E1.2: expected t1/2 55-60 min, 750 mg cefaclor, dosage interval 12 h): 0.967 h
Observed t1/2 ([2]; E1.3: expected t1/2 90-100 min, 500 mg cefaclor, dosage interval 8 h): 1.67 h
Observed t1/2 ([2]; E1.4: expected t1/2 90-100 min, 750 mg cefaclor, dosage interval 12 h): 1.68 h
Observed t1/2 ([2]; E1.5: expected t1/2 90-100 min, 750 mg cefaclor, dosage interval 8 h): 1.53 h
Observed t1/2 ([2]; E2.1: simulated poor absorber, expected t1/2 90-100 min, 500 mg, interval 8 h): 1.6 h
Observed t1/2 ([2]; E2.2: simulated standard absorber, expected t1/2 90-100 min, 500 mg, interval 8 h): 1.67 h
Observed t1/2 ([2]; E2.3: simulated good absorber, expected t1/2 90-100 min, 500 mg, interval 8 h): 1.53 h
